Reference: US9067889B2, “Biphenylcarboxamides as ROCK kinase inhibitors” (Amakem NV, priority 2011, dated 2015)

Key:
[1] = Stability assay in rabbit aqueous humor; type: in vitro ADME; conditions: 1 μM compound in rabbit aqueous humor, LC-MS/MS
Procedure: C.2.2. Stability Assay in Rabbit Aqueous Humor
Compounds are incubated at a concentration of 1 μM in rabbit aqueous humor (AH). Samples are taken at fixed time points and the remnant of compound is determined by LC-MS/MS after protein precipitation.

[2] = Stability assay in human plasma; type: in vitro ADME; conditions: 1 μM compound in human plasma, LC-MS/MS
Procedure: C.2.1. Stability Assay in Human and/or Rat Plasma
Compounds are incubated at a concentration of 1 μM in human plasma (or rat, mice, dog, monkey, minipig or rabbit). Samples are taken at fixed time points and the remnant of compound is determined by LC-MS/MS after protein precipitation.

## COC(=O)Cc1cccc(NC(=O)c2cccc(-c3cc(C(=O)Nc4ccncc4F)ccc3CN)c2)c1 [Compound 1]
[1]
  t½ rabbit AH: 58 min
[2]
  t1/2(min) in human plasma: <60 min
